Experimental findings from PubChem BioAssay (NCI) are described below.

Test systems include NCI/ADR-RES ovarian; UO-31 renal; SW-620 colon; CCRF-CEM leukemia; HCC-2998 colon; 786-0 renal; RPMI-8226 leukemia; MALME-3M melanoma; UACC-257 melanoma; A549 NSCLC.
Test in all cases: DTP human tumour cell line panel, 48 h

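Results reflect a 48-hour exposure of cells in 96-well plates to compound at five concentrations. GI50: concentration for 50% inhibition of growth. TGI is the concentration that stops growth completely.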

With `NS(=O)(=O)c1ccc(-c2cc3ccncc3cc2OCc2ccccc2)cc1`, the GI50 with NCI/ADR-RES ovarian is 25 µM; with UO-31 renal, 14.5 µM; with SW-620 colon it was over 22.9 µM; in the assay on CCRF-CEM leukemia, over 17.7 µM; in the assay with HCC-2998 colon it was over 25 µM; in the assay on 786-0 renal, over 19.8 µM. Also, the GI50 is over 18.2 µM in the assay on RPMI-8226 leukemia, 22.8 µM with MALME-3M melanoma, over 25 µM in the assay on UACC-257 melanoma and 8.59 µM with A549 NSCLC. Further, the TGI with NCI/ADR-RES ovarian, with UO-31 renal, with SW-620 colon, in the assay on CCRF-CEM leukemia, with HCC-2998 colon and with 786-0 renal was over 25 µM throughout. The TGI in the assay with RPMI-8226 leukemia, in the assay with MALME-3M melanoma, with UACC-257 melanoma and in the assay on A549 NSCLC was over 25 µM each time.
Consider `O=C(Nc1cccc(-n2cc(-c3ccncc3)c(-c3cc(O)cc(Cl)c3)n2)c1)c1cc(C(F)(F)F)cc(C(F)(F)F)c1`, for which the GI50 with NCI/ADR-RES ovarian is 4.55 µM; with UO-31 renal, 2.5 µM; in the assay with SW-620 colon, 4.48 µM; in the assay on CCRF-CEM leukemia, 2.68 µM; in the assay on HCC-2998 colon, 3.12 µM; in the assay with 786-0 renal it was 3.12 µM. Besides, the GI50 was 2.5 µM with RPMI-8226 leukemia, 3.69 µM with MALME-3M melanoma, 4.23 µM in the assay on UACC-257 melanoma and 2.62 µM in the assay with A549 NSCLC. Further, the TGI in the assay with NCI/ADR-RES ovarian was over 100 µM; with UO-31 renal, over 100 µM; in the assay with SW-620 colon, over 100 µM; in the assay with CCRF-CEM leukemia, over 100 µM; with HCC-2998 colon, 11.6 µM; in the assay with 786-0 renal, 21.1 µM. Moreover, the TGI in the assay with RPMI-8226 leukemia is 12.7 µM; in the assay with MALME-3M melanoma it was 94.4 µM; with UACC-257 melanoma it was 51.2 µM; in the assay on A549 NSCLC, over 100 µM.
As to `Cc1cc[n+]2c(c1)-c1cc(C)cc[n+]1CC2`, the TGI in the assay on NCI/ADR-RES ovarian, in the assay on UO-31 renal, with SW-620 colon, in the assay with CCRF-CEM leukemia, with HCC-2998 colon and with 786-0 renal was over 100 µM each time. Moreover, the TGI in the assay with RPMI-8226 leukemia, in the assay with MALME-3M melanoma, in the assay on UACC-257 melanoma and with A549 NSCLC was over 100 µM each time.
On to `C[C@]12CC[C@@H]3c4cc(OC(F)F)c(OS(N)(=O)=O)cc4CC[C@H]3[C@@H]1CC[C@@H]2O`, for which the GI50 is 0.601 µM with NCI/ADR-RES ovarian; 0.769 µM with UO-31 renal; 0.407 µM with SW-620 colon; 0.398 µM with CCRF-CEM leukemia; 1.04 µM with HCC-2998 colon; 0.621 µM with 786-0 renal. Besides, the GI50 in the assay with RPMI-8226 leukemia was 0.449 µM; in the assay on MALME-3M melanoma, 0.485 µM; with UACC-257 melanoma it was 3.76 µM; in the assay with A549 NSCLC, 1.75 µM. The total growth inhibition concentration (TGI) is 16.7 µM in the assay on NCI/ADR-RES ovarian; 26.6 µM in the assay with UO-31 renal; 28.8 µM in the assay on SW-620 colon; over 100 µM in the assay with CCRF-CEM leukemia; 14 µM in the assay on HCC-2998 colon; 29.1 µM in the assay with 786-0 renal. The TGI was 21.9 µM in the assay on RPMI-8226 leukemia, 21.6 µM in the assay on MALME-3M melanoma, 25.8 µM with UACC-257 melanoma and over 88.2 µM in the assay on A549 NSCLC.
As to `Oc1ccc(C(c2ccc(O)cc2)c2ccc(Br)cn2)cc1`, the GI50 in the assay on NCI/ADR-RES ovarian is 0.229 µM; in the assay with UO-31 renal, 6.14 µM; with SW-620 colon it was 35.9 µM; with CCRF-CEM leukemia it was 14.7 µM; with HCC-2998 colon, 0.322 µM; in the assay with 786-0 renal, 21.5 µM. For the same molecule, the GI50 was 15.6 µM with RPMI-8226 leukemia, 17.7 µM in the assay with MALME-3M melanoma, 17.4 µM in the assay with UACC-257 melanoma and 1.95 µM with A549 NSCLC. For the same molecule, the TGI is 0.55 µM in the assay with NCI/ADR-RES ovarian; 40.7 µM with UO-31 renal; over 100 µM with SW-620 colon; over 100 µM with CCRF-CEM leukemia; 2.98 µM with HCC-2998 colon; over 79.7 µM in the assay with 786-0 renal. In addition, the TGI with RPMI-8226 leukemia came to 58.6 µM; in the assay on MALME-3M melanoma, 59.8 µM; in the assay on UACC-257 melanoma, 61.5 µM; in the assay with A549 NSCLC, 60 µM.
For the molecule `Cc1cc(C)nc(SC2=C(Nc3cc(Cl)ccc3O)C(=O)N(Cc3ccccc3)C2=O)n1`, the GI50 was over 160 µM with NCI/ADR-RES ovarian; 80.7 µM with UO-31 renal; 53 µM in the assay with SW-620 colon; 7.38 µM in the assay with CCRF-CEM leukemia; over 160 µM with HCC-2998 colon; 14.7 µM in the assay with 786-0 renal. Further, the GI50 in the assay with RPMI-8226 leukemia is 3.57 µM; in the assay with MALME-3M melanoma it was 39.4 µM; in the assay with UACC-257 melanoma, 32.5 µM; with A549 NSCLC it was 30.7 µM. Further, the TGI in the assay with NCI/ADR-RES ovarian is over 160 µM; in the assay on UO-31 renal it was over 160 µM; with SW-620 colon, over 160 µM; with CCRF-CEM leukemia, 124 µM; in the assay with HCC-2998 colon, over 160 µM; with 786-0 renal, 85.2 µM. Also, the TGI with RPMI-8226 leukemia is 25.7 µM; with MALME-3M melanoma, 99.7 µM; in the assay on UACC-257 melanoma, 102 µM; in the assay on A549 NSCLC, over 160 µM.
As for `COC(=O)CCCCC(=O)c1c(C)[nH]c(/C=C2\N=C(c3ccc[nH]3)C=C2OC)c1C`, the GI50 in the assay on NCI/ADR-RES ovarian was 0.504 µM; in the assay with UO-31 renal, 0.334 µM; in the assay with SW-620 colon it was 0.395 µM; in the assay on CCRF-CEM leukemia, 0.159 µM; in the assay on HCC-2998 colon, 1.96 µM; with 786-0 renal it was 0.437 µM. Also, the GI50 is 0.428 µM in the assay on RPMI-8226 leukemia, 0.746 µM in the assay with MALME-3M melanoma, 1.73 µM in the assay on UACC-257 melanoma and 1.25 µM in the assay with A549 NSCLC. Moreover, the TGI with NCI/ADR-RES ovarian amounted to 1.91 µM; in the assay on UO-31 renal, 1.24 µM; in the assay on SW-620 colon, 1.54 µM; in the assay with CCRF-CEM leukemia, 2.32 µM; in the assay on HCC-2998 colon, 4.19 µM; in the assay with 786-0 renal it was 1.61 µM. Moreover, the TGI is 2.34 µM with RPMI-8226 leukemia, 2.16 µM with MALME-3M melanoma, 3.33 µM in the assay on UACC-257 melanoma and 3.28 µM with A549 NSCLC.
Regarding `CC(C)(O)CNc1nc(Nc2ccnc(C(F)(F)F)c2)nc(-c2cccc(C(F)(F)F)n2)n1`, the GI50 in the assay with NCI/ADR-RES ovarian was 17.1 µM; with UO-31 renal, 19.9 µM; in the assay on SW-620 colon, 26.7 µM; in the assay on CCRF-CEM leukemia it was 21.3 µM; with HCC-2998 colon, 20.3 µM; in the assay with 786-0 renal, 18.6 µM. Moreover, the GI50 was 18.5 µM in the assay with RPMI-8226 leukemia, 21.1 µM in the assay with MALME-3M melanoma, 21.7 µM in the assay on UACC-257 melanoma and 19.5 µM in the assay on A549 NSCLC. The TGI in the assay with NCI/ADR-RES ovarian turned out to be 53.8 µM; in the assay with UO-31 renal, 50.4 µM; in the assay on SW-620 colon it was 86.5 µM; with CCRF-CEM leukemia, 73.9 µM; with HCC-2998 colon, 43.7 µM; with 786-0 renal it was 78.5 µM. Besides, the TGI in the assay with RPMI-8226 leukemia turned out to be 56.1 µM; in the assay with MALME-3M melanoma it was 43.3 µM; in the assay on UACC-257 melanoma it was 43.6 µM; in the assay on A549 NSCLC, 39.4 µM.
As to `OC(C#Cc1ccccc1)(c1ccccc1)c1ccccc1`, the TGI in the assay on NCI/ADR-RES ovarian was over 100 µM; in the assay with UO-31 renal, over 100 µM; with SW-620 colon it was over 100 µM; in the assay on CCRF-CEM leukemia, 35.3 µM; in the assay on HCC-2998 colon it was over 100 µM; with 786-0 renal, over 100 µM. In addition, the TGI in the assay with RPMI-8226 leukemia was 47.4 µM; in the assay with MALME-3M melanoma, 60.2 µM; in the assay with UACC-257 melanoma, over 100 µM; in the assay with A549 NSCLC, 52.9 µM.
Take `Oc1cccc2ccc(N/N=C/c3cc(CN4CCOCC4)c(O)c4ncccc34)nc12`: the GI50 in the assay with NCI/ADR-RES ovarian is 0.0233 µM; with UO-31 renal it was 0.0124 µM; with CCRF-CEM leukemia, 0.0391 µM; with HCC-2998 colon it was 0.0368 µM; in the assay with 786-0 renal, 0.0444 µM; with RPMI-8226 leukemia it was 0.0154 µM. The GI50 is 0.032 µM with MALME-3M melanoma, 0.0368 µM with UACC-257 melanoma and 0.0245 µM with A549 NSCLC. Further, the TGI with NCI/ADR-RES ovarian amounted to 1.63 µM; in the assay with UO-31 renal it was 1.24 µM; in the assay with SW-620 colon it was 2.41 µM; in the assay on CCRF-CEM leukemia, 9.95 µM; with HCC-2998 colon, 1.93 µM; in the assay on 786-0 renal, 3.75 µM. For the same molecule, the TGI in the assay with RPMI-8226 leukemia came out at 10.5 µM; with MALME-3M melanoma, 1.89 µM; with UACC-257 melanoma it was 0.44 µM; with A549 NSCLC, 1.23 µM.
In the case of `COC1=C(OC)C(=O)C(SC/C=C(\C)CCCC(C)CCCC(C)CCCC(C)C)=CC1=O` (stereo not drawn), the GI50 in the assay on NCI/ADR-RES ovarian is 0.784 µM; in the assay with UO-31 renal, 1.24 µM; with SW-620 colon, 0.872 µM; in the assay on CCRF-CEM leukemia, 1.19 µM; with HCC-2998 colon, 2.37 µM; in the assay on 786-0 renal, 11.2 µM. For the same molecule, the GI50 is 0.126 µM in the assay on RPMI-8226 leukemia, 0.513 µM in the assay on MALME-3M melanoma, 2.71 µM in the assay with UACC-257 melanoma and 2.83 µM in the assay with A549 NSCLC. Moreover, the TGI in the assay with NCI/ADR-RES ovarian was over 46.7 µM; in the assay on UO-31 renal, over 27.2 µM; in the assay with SW-620 colon, over 100 µM; with CCRF-CEM leukemia, over 100 µM; in the assay on HCC-2998 colon it was over 100 µM; in the assay on 786-0 renal, over 100 µM. Moreover, the TGI was 2.88 µM with RPMI-8226 leukemia, over 100 µM with UACC-257 melanoma and over 100 µM in the assay with A549 NSCLC.
As to `Cc1cccc2c3c(sc12)C(c1ccc(Cl)cc1)C(C#N)=C(N)O3` (stereo not drawn), the GI50 in the assay on NCI/ADR-RES ovarian is 0.302 µM; in the assay on UO-31 renal, 0.664 µM; in the assay on SW-620 colon it was 0.416 µM; in the assay on CCRF-CEM leukemia it was 0.382 µM; with HCC-2998 colon, 0.67 µM; in the assay on 786-0 renal, 0.643 µM. Besides, the concentration for 50% growth inhibition (GI50) is 0.423 µM in the assay on RPMI-8226 leukemia, 0.653 µM in the assay on MALME-3M melanoma, 11.8 µM in the assay on UACC-257 melanoma and 0.486 µM in the assay with A549 NSCLC. Also, the TGI in the assay on NCI/ADR-RES ovarian is 2.46 µM; in the assay with UO-31 renal, 16.2 µM; with SW-620 colon it was 11.6 µM; in the assay on CCRF-CEM leukemia it was 32.1 µM; in the assay with HCC-2998 colon it was 6.43 µM; with 786-0 renal it was 13.3 µM. Also, the TGI with RPMI-8226 leukemia was 6.33 µM; with MALME-3M melanoma, 20 µM; in the assay on UACC-257 melanoma, 27.3 µM; in the assay with A549 NSCLC, 9.66 µM.

Broadly, the GI50 is the concentration giving 50% growth inhibition. In general, TGI refers to the concentration giving total growth inhibition.
